Experimental data: the supplement of paper PMC10307832

Key:
Assay in all cases: relative viability (nuclei count vs DMSO), 5 days (fraction); higher = more cells survive
Mirin + Foretinib = compound: N=C1NC(=O)/C(=C/c2ccc(O)cc2)S1 [Mirin] + COc1cc2c(Oc3ccc(NC(=O)C4(C(=O)Nc5ccc(F)cc5)CC4)cc3F)ccnc2cc1OCCCN1CCOCC1 [Foretinib] (partner 0.25 µM)
Method in brief: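 Lung cancer cell lines in 1536-well plates were dosed by pin tool the day after seeding, either with one drug alone or with a fixed anchor-drug dose plus five library-drug doses (not always all listed) in √10 steps. After 5 days, cells were fixed and their nuclei stained in one step (final 0.05% Triton X-100, 1% formaldehyde, 1 ug/ml Hoechst), then counted on 4× images. Relative viability is the nuclei count in treated wells divided by that in vehicle wells. Values are medians of duplicate plates.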

[1] = compound: CCn1c(-c2nonc2N)nc2cnc(Oc3cccc(NC(=O)c4ccc(OCCN5CCOCC5)cc4)c3)cc21
Method in brief: (§1)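 In 1536-well plates, lung cancer cell lines rested overnight at 37 °C before five library-drug doses (not always all listed), √10 apart, were pinned onto vehicle-anchored plates. Nuclei were counted with MetaXpress from 4× Hoechst images taken after 5 days without medium change. Viability compares treated-well with vehicle-well nuclei as a median over plates, and plates needed control CV below 25% plus at least one doubling to pass.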

Mirin = compound: N=C1NC(=O)/C(=C/c2ccc(O)cc2)S1 [Mirin]
Method in brief: as §1

[2] = compound: CCC1=CN=CN=C1N2CCN(CC2)CC3=NC4=C(N3)C=C(C=C4)C(F)(F)F
Method in brief: as §1

Cell Line	relative viability (Mirin + Foretinib; first compound 0.25 µM)	relative viability (Mirin + Foretinib; first compound 0.7906 µM)	relative viability (Mirin + Foretinib; first compound 2.5 µM)	relative viability (Mirin + Foretinib; first compound 7.906 µM)	relative viability (Mirin + Foretinib; first compound 25 µM)	relative viability ([1]; 0.04 µM)	relative viability ([1]; 0.1265 µM)	relative viability ([1]; 0.4 µM)	relative viability ([1]; 1.265 µM)	relative viability ([1]; 4 µM)	relative viability (Mirin; 0.25 µM)	relative viability (Mirin; 0.7906 µM)	relative viability (Mirin; 2.5 µM)	relative viability (Mirin; 7.906 µM)	relative viability (Mirin; 25 µM)	relative viability ([2]; 0.04 µM)	relative viability ([2]; 0.1265 µM)	relative viability ([2]; 0.4 µM)	relative viability ([2]; 1.265 µM)	relative viability ([2]; 4 µM)
Calu-6	0.902	1.03	0.918	0.903	0.865	1.05	1.02	0.841	0.604	0.549	1.02	1.07	1.06	0.923	0.987	1	0.986	0.953	0.898	0.925
NCI-H1703	0.309	0.31	0.368	0.413	0.3	1.02	0.809	0.616	0.635	0.41	1.07	0.925	0.966	–	0.83	0.953	0.914	0.819	0.73	0.968
NCI-H1650	1.22	1.11	0.968	1.43	0.782	1.21	0.894	0.858	0.746	0.812	0.963	1.08	1	0.984	0.61	0.82	0.824	0.84	0.703	0.981
NCI-H838	1.05	1.08	1.08	1	0.852	0.854	0.517	0.409	0.406	0.319	0.999	0.93	1.02	1.02	0.959	0.997	0.941	0.942	0.828	0.957
NCI-H2342	1.14	1.11	1.15	1.03	0.861	1.04	1.05	0.874	0.748	0.804	0.998	1.02	1.03	0.668	0.888	0.936	0.888	0.864	0.543	0.72
COR-L23	1.07	1.14	0.879	1.01	1.05	1.1	0.846	0.497	0.252	0.19	1.04	1.13	1.09	1.06	1.02	0.985	0.989	0.937	0.932	0.922
ChaGo-K-1	0.963	0.921	0.965	0.841	0.652	1.14	1.02	0.801	0.833	0.879	0.986	0.916	0.93	0.887	0.833	1.01	0.961	0.932	0.961	0.97
HOP-62	1.17	1.24	1.11	1.1	1.21	1.13	1.02	0.899	0.549	0.537	0.979	1.07	0.983	0.856	1.1	1.03	0.946	0.95	0.936	1.06
NCI-H1915	1.06	–	1.12	0.948	0.975	1.11	1.01	0.811	0.331	0.404	1	–	0.984	0.951	1.03	0.992	0.976	0.926	0.809	1.05
BEN	0.567	0.654	0.68	0.552	0.386	0.92	0.816	0.514	0.362	0.452	0.857	1.01	1.2	0.812	0.549	0.836	0.929	0.928	0.594	0.675
NCI-H1437	1.31	1.31	1.22	1.2	1.19	1.03	0.933	0.763	0.796	0.705	1	1.02	0.984	0.995	0.958	0.948	0.92	0.921	0.863	0.747
EMC-BAC-2	0.976	0.998	1.07	1.06	1.09	0.94	0.862	0.43	0.405	0.343	0.993	0.907	1.01	0.857	0.971	0.77	0.877	0.925	0.802	1.15
NCI-H2087	1.24	1.28	1	0.943	1.08	1.21	0.812	0.844	0.698	0.637	1.01	1	0.983	0.896	1.2	1.05	0.958	0.973	0.854	0.716
NCI-H650	0.834	1.07	1.06	–	1.13	1.1	0.761	0.391	0.359	0.417	1.03	0.737	0.929	–	1.13	0.776	0.958	0.994	0.918	0.958
LXF-289	1.04	1.03	0.939	1.09	1.01	1.07	1.12	0.965	0.858	0.762	0.997	1.1	0.999	1.06	1.13	1.1	0.944	0.953	1.05	0.99
LOU-NH91	0.937	0.987	0.935	0.93	1.16	1.08	0.854	0.664	0.454	0.523	0.914	0.738	0.981	0.912	1.21	0.894	0.954	0.963	0.839	1.01
NCI-H2347	1.08	0.652	1.17	0.683	0.879	1.1	1.02	0.878	0.504	0.546	0.962	0.972	1.08	0.957	1.03	1.05	0.986	1.04	0.827	1.09

Cell Line	relative viability (Mirin + Foretinib; first compound 0.25 µM)	relative viability (Mirin + Foretinib; first compound 0.7906 µM)	relative viability (Mirin + Foretinib; first compound 2.5 µM)	relative viability (Mirin + Foretinib; first compound 7.906 µM)	relative viability (Mirin + Foretinib; first compound 25 µM)	relative viability ([1]; 0.04 µM)	relative viability ([1]; 0.1265 µM)	relative viability ([1]; 0.4 µM)	relative viability ([1]; 1.265 µM)	relative viability ([1]; 4 µM)	relative viability (Mirin; 0.25 µM)	relative viability (Mirin; 0.7906 µM)	relative viability (Mirin; 2.5 µM)	relative viability (Mirin; 7.906 µM)	relative viability (Mirin; 25 µM)	relative viability ([2]; 0.04 µM)	relative viability ([2]; 0.1265 µM)	relative viability ([2]; 0.4 µM)	relative viability ([2]; 1.265 µM)	relative viability ([2]; 4 µM)
NCI-H1993	0.716	–	0.821	0.76	0.824	0.985	0.878	0.603	0.793	0.82	0.914	0.75	1.08	0.941	0.879	0.968	0.921	0.809	0.916	0.945
HCC-827	1.03	1.08	1.06	1.06	1.23	1.02	0.961	0.911	0.821	0.756	1.03	1.09	1.01	1.02	1.19	1.05	1.04	0.998	0.942	0.988
NCI-H1623	0.787	0.708	0.865	0.716	0.625	1.13	1.02	0.974	0.902	1.08	0.967	1.08	1.04	0.823	0.738	0.897	0.996	0.873	0.832	1.17
NCI-H661	1.05	1.06	1.02	1.07	0.975	0.998	0.969	0.957	0.82	0.611	0.988	1.09	1.03	0.974	1.01	0.996	0.973	0.955	0.967	0.971
CAL-12T	1.16	–	1.12	1.04	1.31	1.33	1.13	0.927	0.479	0.654	1.07	0.861	1.02	0.982	1.23	0.985	0.941	0.958	0.974	1.01
PC-14	0.968	0.833	1.09	0.929	1.02	1.08	0.834	0.809	0.729	0.653	0.975	0.906	1.03	1.05	1.13	0.97	0.919	0.99	0.979	1
NCI-H23	0.8	–	1.13	0.891	0.773	1.21	1	0.567	0.674	0.589	1	–	0.907	0.819	0.907	0.852	0.918	0.812	0.742	0.954
SK-LU-1	0.801	0.924	0.863	0.728	0.731	1.16	0.795	0.672	0.452	0.566	1.14	1.07	1.07	0.809	0.905	1.1	0.969	0.967	0.808	0.994
NCI-H727	0.9	0.889	1.18	1.14	1.12	1.21	1.15	0.767	0.986	0.947	1.14	0.918	1.06	1.27	1.15	1.05	0.909	0.981	0.603	0.91
HCC-366	0.855	–	0.888	0.997	0.869	1.01	1.03	0.836	0.0886	0.098	1.03	0.868	0.982	1.03	0.947	1	0.979	0.988	–	1.05
SW 1573	0.82	0.822	0.892	0.76	0.981	1.1	0.992	0.74	0.488	0.338	0.986	0.825	0.986	0.968	0.779	0.925	1.08	0.912	0.858	0.941
A-427	1.06	–	1.07	1.05	0.607	1.23	0.936	0.727	0.587	0.444	0.983	0.716	1.02	0.961	1.03	0.885	0.961	0.857	0.808	0.887
SW 900	1.02	1.19	1.1	0.866	0.827	0.892	0.946	0.917	0.716	0.83	1	0.773	0.888	0.98	0.869	0.842	0.928	0.866	0.626	0.857
NCI-H441	1.02	1.16	0.995	1.09	1.05	1.26	1.12	0.541	0.807	0.727	1.11	1.01	1.1	0.886	0.993	1.09	0.926	0.896	0.877	1.09
ABC-1	1.35	1.08	0.971	1.03	0.587	1.09	0.906	0.545	0.452	0.447	0.996	0.806	0.949	0.759	0.487	0.946	0.807	0.816	0.742	0.828
LK-2	1.24	–	1.02	0.977	0.586	1.23	1.19	0.774	0.686	0.843	0.881	0.686	1.03	0.647	0.534	0.989	1.01	0.832	0.718	0.912
